The values that follow come from US9096639B2, “17-hydroxy-17-pentafluorethyl-estra-4,9(10)-dien-11-acyloxyalkylene phenyl derivatives, methods for the production thereof and use thereof for treating diseases” (Bayer Intellectual Property GmbH, priority 2009, dated 2015).

Counter-ions that a name gives are not always drawn.

A short description of series [1]: Determination of hydrolytic stability (5:1 dioxane/buffer, HPLC). In kind it is physicochemical. Conditions: 5:1 dioxane/buffer solution, test ended after 24 or 192 hours, read-out: Hydrolytic stability t1/2. As for the experimental part:
The ester to be analyzed was dissolved in each case in a 5:1 mixture of dioxane and buffer solution (pH 1.2, pH 5.0 or pH 8.0) at 23° C. At different times, the content of ester and hydrolysis products (8S,11R,13S,14S,1 7S)-17-hydroxy-11-[4-((R)-1-hydroxyethyl)phenyl]-13-methyl-17-pentafluoroethyl-1,2,6,7,8,11,12,13,14,15,16,17-dodecahydrocyclopenta[a]phenanthren-3-one and/or (8S,11R,13S,14S,17S)-17-hydroxy-11-[4-((S)-1-hydroxyethyl)phenyl]-1 3-methyl-17-pentafluoroethyl-1,2,6,7,8,11,12,13,14,15,16,17-dodecahydrocyclopenta[a]phenanthren-3-one was determined by HPLC. The test was ended after 24 hours or 192 hours.

For series [2], the target named is T1, human progesterone receptor A (Homo sapiens, UniProt P06401).
T1 construct: expressed in transfected cells; host or cells: SK-N-MC human neuroblastoma cells, stably transfected with pRChPR-A-neo and pMMTV-LUC
T1 sequence (P06401 1-769 isoform P06401-2): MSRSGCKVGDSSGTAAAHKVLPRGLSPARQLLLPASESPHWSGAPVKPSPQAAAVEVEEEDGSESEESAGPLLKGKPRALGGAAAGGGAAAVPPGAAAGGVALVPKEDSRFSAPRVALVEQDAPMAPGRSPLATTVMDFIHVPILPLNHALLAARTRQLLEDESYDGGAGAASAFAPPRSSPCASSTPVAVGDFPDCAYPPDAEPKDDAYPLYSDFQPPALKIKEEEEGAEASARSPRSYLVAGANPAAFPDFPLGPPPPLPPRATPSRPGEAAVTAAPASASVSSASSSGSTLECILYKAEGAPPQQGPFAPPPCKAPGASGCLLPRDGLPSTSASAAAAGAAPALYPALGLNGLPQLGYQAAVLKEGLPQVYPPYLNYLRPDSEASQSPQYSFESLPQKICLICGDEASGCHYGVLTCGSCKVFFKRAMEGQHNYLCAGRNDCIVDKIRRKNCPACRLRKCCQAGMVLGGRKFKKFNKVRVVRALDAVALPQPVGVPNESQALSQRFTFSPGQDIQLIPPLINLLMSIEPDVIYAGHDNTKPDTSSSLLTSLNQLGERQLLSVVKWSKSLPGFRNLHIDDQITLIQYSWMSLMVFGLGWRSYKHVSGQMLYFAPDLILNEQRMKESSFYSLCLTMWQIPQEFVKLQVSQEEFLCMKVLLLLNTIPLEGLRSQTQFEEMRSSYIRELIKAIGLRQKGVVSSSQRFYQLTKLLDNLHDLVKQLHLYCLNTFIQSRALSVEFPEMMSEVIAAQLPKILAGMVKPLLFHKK
The series can be described thus: Progesterone receptor transactivation test in stably transfected SK-N-MC cells (PR-A, MMTV-LUC reporter). In kind it is cell-based. The note with it: 0.1 nmol/l promegestone, 24 hours, read-out: PR-A IC50 (antagonistic potency). As for the experimental part:
(§1) Progesterone receptor-antagonistic action in stable transfectants of human neuroblastoma cells (SK-N-MC cells) with the human progesterone A or progesterone B receptor and an MN-LUC reporter construct SK-N-MC cells (human neuroblastoma cells) which have been stably transfected with plasmids expressing the human progesterone receptor B (pRChPR-B-neo) or the human progesterone receptor A (pRChPR-A-neo) and a reporter construct (pMMTV-LUC) were incubated for 24 hours either in the absence (negative control) or in the presence of ascending amounts of the particular test compound (0.01 nmol/l, 0.1 nmol/l, 1 […], 100 nmol/l and […]), in order to determine the agonistic efficacy. As a positive control of the reporter gene induction, the cells were treated with the synthetic gestagen promegestone (0.01 nmol/l, 0.1 nmol/l, 1 nmol/l, 10 nmol/l, 100 nmol/l and […]). To determine the antagonistic activity, the cells were treated with 0.1 nmol/l promegestone and additionally with ascending amounts of the particular test compound (0.01 nmol/l, 0.1 nmol/l, 1 nmol/l, 10 nmol/l, 100 nmol/l and […]). The activity of the reporter gene LUC (LUC=luciferase) was determined in the cell lysates and measured as RLU (relative light units). All measurements are reported as % efficacy and as EC50 and IC50 concentrations.

Series [3] addresses T2, human progesterone receptor B (Homo sapiens, UniProt P06401).
T2 construct: expressed in transfected cells; host or cells: SK-N-MC human neuroblastoma cells, stably transfected with pRChPR-B-neo and pMMTV-LUC
T2 sequence (P06401 1-933): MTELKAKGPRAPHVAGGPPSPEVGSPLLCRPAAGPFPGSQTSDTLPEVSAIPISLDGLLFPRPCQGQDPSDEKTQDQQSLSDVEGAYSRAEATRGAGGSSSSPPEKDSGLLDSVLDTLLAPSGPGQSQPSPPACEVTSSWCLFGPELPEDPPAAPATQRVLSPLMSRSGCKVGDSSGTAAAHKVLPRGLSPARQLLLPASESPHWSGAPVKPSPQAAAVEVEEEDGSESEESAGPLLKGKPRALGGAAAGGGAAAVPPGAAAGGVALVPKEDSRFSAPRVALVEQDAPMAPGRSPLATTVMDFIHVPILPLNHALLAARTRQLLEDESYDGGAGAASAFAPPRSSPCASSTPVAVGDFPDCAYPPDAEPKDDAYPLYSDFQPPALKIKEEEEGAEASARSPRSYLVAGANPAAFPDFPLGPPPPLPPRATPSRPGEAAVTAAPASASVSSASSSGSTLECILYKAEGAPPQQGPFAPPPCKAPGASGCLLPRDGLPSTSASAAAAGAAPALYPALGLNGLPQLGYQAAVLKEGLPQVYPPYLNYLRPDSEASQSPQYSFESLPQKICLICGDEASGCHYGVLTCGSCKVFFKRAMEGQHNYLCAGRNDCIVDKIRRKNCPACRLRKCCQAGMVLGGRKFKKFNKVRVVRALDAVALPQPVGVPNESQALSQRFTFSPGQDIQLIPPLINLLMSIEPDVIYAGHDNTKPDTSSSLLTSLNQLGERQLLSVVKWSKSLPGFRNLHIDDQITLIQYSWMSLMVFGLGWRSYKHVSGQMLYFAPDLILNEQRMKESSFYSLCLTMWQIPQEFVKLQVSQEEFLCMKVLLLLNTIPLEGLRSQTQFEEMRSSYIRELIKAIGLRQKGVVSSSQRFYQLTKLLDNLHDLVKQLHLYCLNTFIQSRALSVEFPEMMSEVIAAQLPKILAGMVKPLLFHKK
The series can be described thus: Progesterone receptor transactivation test in stably transfected SK-N-MC cells (PR-B, MMTV-LUC reporter). Format: cell-based. The note with it: 0.1 nmol/l promegestone, 24 hours, read-out: PR-B IC50 (antagonistic potency). As for the experimental part: as §1

Series [4] is described as follows: Determination of stability in human plasma. In kind it is in vitro ADME. As for the experimental part: (§2) A stock solution of 1.0 mg of the substance to be tested in a 9:1 mixture of acetonitrile and dimethyl sulphoxide was prepared. 20 μl of this stock solution were added at 37° C. to 1 ml of human plasma or rat plasma. To determine the content, 100 μl samples were each taken at different times. The enzyme activity was blocked by adding 300 μl of acetonitrile, the samples were centrifuged at 5000 rpm over 10 minutes and, in the supernatant, the content of ester and hydrolysis products (8S,11R,13S,14S,17S)-17-hydroxy-11-[4-((R)-1-hydroxyethyl)phenyl]-1 3-methyl-17-pentafluoroethyl-1,2,6,7,8,11,12,13,14,15,16,17-dodecahydrocyclopenta[a]phenanthren-3-one and/or (8S,11R,13S,14S,17S)-17-hydroxy-11-[4-((S)-1-hydroxyethyl)phenyl]-13-methyl-17-pentafluoroethyl-1,2,6,7,8,11,12,13,14,15,16,17-dodecahydrocyclopenta[a]phenanthrene-3-one was determined by HPLC. The concentration-time curves were used to calculate the degradation kinetics. The stability of the substance tested was reported as the half-life.

The nature of series [5]: Determination of stability in rat plasma. Format: in vitro ADME. The note with it: 37° C., read-out: Stability t1/2 in rat plasma (converted). As for the experimental part: as §2
The mark [6] stands for this setting: 37° C., read-out: Stability t1/2 in human plasma (converted).
Setting [7] is: method of working example 19, summary statement in description, read-out: half-life in human plasma.

One may read the IC50 as the concentration at which inhibition is half-maximal.

As for `CC(OC(=O)[C@@H]1CCCN1C(=O)OC(C)(C)C)c1ccc([C@H]2C[C@@]3(C)C(CC[C@@]3(O)C(F)(F)C(F)(F)F)C3CCC4=CC(=O)CCC4=C32)cc1` (mixture of isomers) [Example 11, (S)-Pyrrolidine-1,2-dicarboxylic acid 1-tert-butyl ester 2-{(RS)-1-[4-((8S,11R,13S,14S,17S)-17-hydroxy-13-methyl-3-oxo-17-pentafluoroethyl-2,3,6,7,8,11,12,13,14,15,16,17-dodecahydro-1H-cyclopenta[a]phenanthren-11-yl)phenyl]ethyl}ester], the half-life in series [1] (pH = 1.2, 23° C.) was above 192 h; in series [1] (pH = 8.0, 23° C.), above 192 h; in series [4] (setting [6]), above 1000 h; in series [4] (setting [7]) it was above 100 h; in series [5], 462 h. Further, the 50% inhibitory concentration (IC50) in series [2] was determined as 0.1 nM; in series [3], 0.05 nM.
Take `CC(OC(=O)[C@@H]1CCCN1)c1ccc([C@H]2C[C@@]3(C)C(CC[C@@]3(O)C(F)(F)C(F)(F)F)C3CCC4=CC(=O)CCC4=C32)cc1` (mixture of isomers) [Example 13, (S)-Pyrrolidine-2-carboxylic acid (RS)-1-[4-((8S,11R,13S,14S,17S)-17-hydroxy-13-methyl-3-oxo-17-pentafluoroethyl-2,3,6,7,8,11,12,13,14,15,16,17-dodecahydro-1H-cyclopenta[a]phenanthren-11-yl)phenyl]ethyl ester hydrochloride]: the half-life in series [1] (pH = 1.2, 23° C.) was above 192 h; in series [1] (pH = 8.0, 23° C.), above 192 h; in series [4] (setting [6]), 9.7 h; in series [5], 5.3 h. Besides, the results for the IC50 in series [2] and in series [3] were 0.27 nM and 0.74 nM, respectively.
As for `CC(OC(=O)CCc1nccs1)c1ccc([C@H]2C[C@@]3(C)C(CC[C@@]3(O)C(F)(F)C(F)(F)F)C3CCC4=CC(=O)CCC4=C32)cc1` (mixture of isomers) [Example 15, 3-Thiazol-2-ylpropionic acid (RS)-1-[4-((8S,11R,13S,14S,17S)-17-hydroxy-13-methyl-3-oxo-17-pentafluoroethyl-2,3,6,7,8,11,12,13,14,15,16,17-dodecahydro-1H-cyclopenta[a]phenanthren-11-yl)phenyl]ethyl ester], the half-life is above 192 h in series [1] (pH = 1.2, 23° C.); above 192 h in series [1] (pH = 8.0, 23° C.); 131 h in series [4] (setting [6]); above 100 h in series [4] (setting [7]); 1.2 h in series [5]. Moreover, the IC50 in series [2] and in series [3] was 0.1 nM in each case.
For the compound `Cc1nccn1CCC(=O)O[C@@H](C)c1ccc([C@H]2C[C@@]3(C)[C@@H](CC[C@@]3(O)C(F)(F)C(F)(F)F)[C@@H]3CCC4=CC(=O)CCC4=C32)cc1` (single isomer, unassigned) [Example 14A], the IC50 came to 0.18 nM in series [2] and 0.29 nM in series [3]. Also, the half-life in series [4] (setting [6]) is 190 h; in series [4] (setting [7]) it was above 100 h; in series [5], 48.5 h.
As for `Cc1nccn1CCC(=O)O[C@H](C)c1ccc([C@H]2C[C@@]3(C)[C@@H](CC[C@@]3(O)C(F)(F)C(F)(F)F)[C@@H]3CCC4=CC(=O)CCC4=C32)cc1` (single isomer, unassigned) [Example 14B], the IC50 in series [2] was 0.29 nM; in series [3], 0.15 nM. Also, the figures for the half-life in series [4] (setting [6]) and in series [5] were 19.8 h and 0.8 h, respectively.
On to `C=CCOC(=O)N[C@@H](C)C(=O)O[C@H](C)c1ccc([C@H]2C[C@@]3(C)[C@@H](CC[C@@]3(O)C(F)(F)C(F)(F)F)[C@@H]3CCC4=CC(=O)CCC4=C32)cc1` [Example 9, (S)-2-Allyloxycarbonylaminopropionic acid (R)-1-[4-((8S,11R,13S,14S,17S)-17-hydroxy-13-methyl-3-oxo-17-pentafluoroethyl-2,3,6,7,8,11,12,13,14,15,16,17-dodecahydro-1H-cyclopenta[a]phenanthren-11-yl)phenyl]ethyl ester], for which the figures for the IC50 in series [2] and in series [3] were 0.01 nM and 0.09 nM, respectively. For the same compound, the half-life in series [4] (setting [6]) is 231 h; in series [4] (setting [7]), above 100 h; in series [5], 0.3 h.
In the case of `C=CCOC(=O)N[C@@H](C)C(=O)O[C@@H](C)c1ccc([C@H]2C[C@@]3(C)[C@@H](CC[C@@]3(O)C(F)(F)C(F)(F)F)[C@@H]3CCC4=CC(=O)CCC4=C32)cc1` [Example 10, (S)-2-Allyloxycarbonylaminopropionic acid (S)-1-[4-((8S,11R,13S,14S,17S)-17-hydroxy-13-methyl-3-oxo-17-pentafluoroethyl-2,3,6,7,8,11,12,13,14,15,16,17-dodecahydro-1H-cyclopenta[a]phenanthren-11-yl)phenyl]ethy lester], the IC50 turned out to be 0.08 nM in series [2] and 0.09 nM in series [3]. Moreover, the half-life was 22.9 h in series [4] (setting [6]) and 3.6 h in series [5].
